Data taken from patent US11865098B1, “Methods and compositions for treating excessive sleepiness” (Axsome Malta Ltd., priority 2017, dated 2024).

Test system: patients with narcolepsy type 1 or type 2
Assay: Safety and tolerability (TEAEs, discontinuations), 12-week phase 3 study in narcolepsy
Type: in vivo, human
Conditions: for Anxiety, incidence % / Anxiety, incidence n / Any TEAE, incidence % / Any TEAE, incidence n / Constipation, incidence % / Constipation, incidence n / Decreased appetite, incidence % / Decreased appetite, incidence n / Diarrhea, incidence % / Diarrhea, incidence n / Discontinuations due to TEAEs, incidence % / Discontinuations due to TEAEs, incidence n / Dizziness, incidence % / Dizziness, incidence n / Dry mouth, incidence % / Dry mouth, incidence n / Dyspepsia, incidence % / Dyspepsia, incidence n / Fatigue, incidence n / Headache, incidence % / Headache, incidence n / Heart rate increased, incidence n / Influenza, incidence % / Influenza, incidence n / Insomnia, incidence % / Insomnia, incidence n / Nasopharyngitis, incidence % / Nasopharyngitis, incidence n / Nausea, incidence % / Nausea, incidence n / Serious TEAEs, incidence n / Upper respiratory tract infection, incidence % / Upper respiratory tract infection, incidence n / Weight Increased, incidence % / Weight Increased, incidence n / Weight decreased, incidence % / Weight decreased, incidence n / Fatigue, incidence % / Serious TEAEs, incidence % / Heart rate increased, incidence %: safety population
Protocol: The study was a 12-week, double-blind, randomized, placebo-controlled, parallel-group study. Patients were randomized (1:1:1:1) to receive placebo or APC 75, 150, or 300 mg; randomization was stratified by the presence or absence of cataplexy.
Co-primary endpoints were change from baseline to week 12 in MWT mean sleep latency and ESS score. The key secondary endpoint was the percentage of patients who reported improvement on the Patient Global Impression of Change (PGI-C) (Guy, ECDEU assessment manual for psychopharmacology, revised. US Department of Health, Education, and Welfare publication (ADM 76-338). Rockville, MD: National Institute of Mental Health; 1976) at week 12. Other secondary and exploratory endpoints included changes on function and quality-of-life and changes in the number of cataplexy attacks per week. Safety evaluation included adverse events, laboratory tests, and vital signs.

NC(=O)OC[C@H](N)Cc1ccccc1 [JZP-110, (R)-2-amino-3-phenylpropyl carbamate]
Discontinuation rate (75 mg): 16.9%
Anxiety, incidence % (75 mg): (1.7) %
Anxiety, incidence n (75 mg): 1
Any TEAE, incidence % (75 mg): (57.6) %
Any TEAE, incidence n (75 mg): 34
Constipation, incidence % (75 mg): (5.1) %
Constipation, incidence n (75 mg): 3
Decreased appetite, incidence % (75 mg): (8.5) %
Decreased appetite, incidence n (75 mg): 5
Diarrhea, incidence % (75 mg): (3.4) %
Diarrhea, incidence n (75 mg): 2
Discontinuations due to TEAEs, incidence % (75 mg): (1.7) %
Discontinuations due to TEAEs, incidence n (75 mg): 1
Dizziness, incidence % (75 mg): (3.4) %
Dizziness, incidence n (75 mg): 2
Dry mouth, incidence % (75 mg): (5.1) %
Dry mouth, incidence n (75 mg): 3
Dyspepsia, incidence % (75 mg): (1.7) %
Dyspepsia, incidence n (75 mg): 1
Fatigue, incidence n (75 mg): 0
Headache, incidence % (75 mg): (10.2) %
Headache, incidence n (75 mg): 6
Heart rate increased, incidence n (75 mg): 0
Influenza, incidence % (75 mg): (3.4) %
Influenza, incidence n (75 mg): 2
Insomnia, incidence % (75 mg): (3.4) %
Insomnia, incidence n (75 mg): 2
Nasopharyngitis, incidence % (75 mg): (8.5) %
Nasopharyngitis, incidence n (75 mg): 5
Nausea, incidence % (75 mg): (5.1) %
Nausea, incidence n (75 mg): 3
Serious TEAEs, incidence n (75 mg): 0
Upper respiratory tract infection, incidence % (75 mg): (1.7) %
Upper respiratory tract infection, incidence n (75 mg): 1
Weight Increased, incidence % (75 mg): (3.4) %
Weight Increased, incidence n (75 mg): 2
Weight decreased, incidence % (75 mg): (1.7) %
Weight decreased, incidence n (75 mg): 1
Discontinuation rate (150 mg): 13.6%
Serious TEAEs (events) (150 mg, one patient, deemed not related by the investigator): 2 serious TEAEs of non-cardiac chest pain and anxiety
Anxiety, incidence % (150 mg): (5.1) %
Anxiety, incidence n (150 mg): 3
Any TEAE, incidence % (150 mg): (79.7) %
Any TEAE, incidence n (150 mg): 47
Constipation, incidence % (150 mg): (1.7) %
Constipation, incidence n (150 mg): 1
Decreased appetite, incidence % (150 mg): (8.5) %
Decreased appetite, incidence n (150 mg): 5
Diarrhea, incidence % (150 mg): (5.1) %
Diarrhea, incidence n (150 mg): 3
Discontinuations due to TEAEs, incidence % (150 mg): (5.1) %
Discontinuations due to TEAEs, incidence n (150 mg): 3
Dizziness, incidence % (150 mg): (1.7) %
Dizziness, incidence n (150 mg): 1
Dry mouth, incidence % (150 mg): (6.8) %
Dry mouth, incidence n (150 mg): 4
Dyspepsia, incidence % (150 mg): (3.4) %
Dyspepsia, incidence n (150 mg): 2
Fatigue, incidence % (150 mg): (3.4) %
Fatigue, incidence n (150 mg): 2
Headache, incidence % (150 mg): (23.7) %
Headache, incidence n (150 mg): 14
Heart rate increased, incidence n (150 mg): 0
Influenza, incidence % (150 mg): (1.7) %
Influenza, incidence n (150 mg): 1
Insomnia, incidence n (150 mg): 0
Nasopharyngitis, incidence % (150 mg): (13.6) %
Nasopharyngitis, incidence n (150 mg): 8
Nausea, incidence % (150 mg): (10.2) %
Nausea, incidence n (150 mg): 6
Serious TEAEs, incidence % (150 mg): (1.7) %
Serious TEAEs, incidence n (150 mg): 1
Upper respiratory tract infection, incidence % (150 mg): (6.8) %
Upper respiratory tract infection, incidence n (150 mg): 4
Weight Increased, incidence n (150 mg): 0
Weight decreased, incidence % (150 mg): (1.7) %
Weight decreased, incidence n (150 mg): 1
Discontinuation rate (300 mg): 27.1%
Discontinuation due to adverse events (300 mg, n=5): 8.5%
Anxiety, incidence % (300 mg): (8.5) %
Anxiety, incidence n (300 mg): 5
Any TEAE, incidence % (300 mg): (67.8) %
Any TEAE, incidence n (300 mg): 40
Constipation, incidence n (300 mg): 0
Decreased appetite, incidence % (300 mg): (15.3) %
Decreased appetite, incidence n (300 mg): 9
Diarrhea, incidence % (300 mg): (5.1) %
Diarrhea, incidence n (300 mg): 3
Discontinuations due to TEAEs, incidence % (300 mg): (8.5) %
Discontinuations due to TEAEs, incidence n (300 mg): 5
Dizziness, incidence % (300 mg): (5.1) %
Dizziness, incidence n (300 mg): 3
Dry mouth, incidence % (300 mg): (10.2) %
Dry mouth, incidence n (300 mg): 6
Dyspepsia, incidence % (300 mg): (5.1) %
Dyspepsia, incidence n (300 mg): 3
Fatigue, incidence % (300 mg): (5.1) %
Fatigue, incidence n (300 mg): 3
Headache, incidence % (300 mg): (30.5) %
Headache, incidence n (300 mg): 18
Heart rate increased, incidence % (300 mg): (6.8) %
Heart rate increased, incidence n (300 mg): 4
Influenza, incidence % (300 mg): (1.7) %
Influenza, incidence n (300 mg): 1
Insomnia, incidence % (300 mg): (5.1) %
Insomnia, incidence n (300 mg): 3
Nasopharyngitis, incidence % (300 mg): (5.1) %
Nasopharyngitis, incidence n (300 mg): 3
Nausea, incidence % (300 mg): (16.9) %
Nausea, incidence n (300 mg): 10
Serious TEAEs, incidence n (300 mg): 0
Upper respiratory tract infection, incidence n (300 mg): 0
Weight Increased, incidence % (300 mg): (1.7) %
Weight Increased, incidence n (300 mg): 1
Weight decreased, incidence % (300 mg): (5.1) %
Weight decreased, incidence n (300 mg): 3
Discontinuations due to TEAEs compared with placebo (150 and 300 mg groups): greater than placebo
Anxiety, incidence % (All JZP-110): (5.1) %
Anxiety, incidence n (All JZP-110): 9
Any TEAE, incidence % (All JZP-110): (68.4) %
Any TEAE, incidence n (All JZP-110): 121
Constipation, incidence % (All JZP-110): (2.3) %
Constipation, incidence n (All JZP-110): 4
Decreased appetite, incidence % (All JZP-110): (10.7) %
Decreased appetite, incidence n (All JZP-110): 19
Diarrhea, incidence % (All JZP-110): (4.5) %
Diarrhea, incidence n (All JZP-110): 8
Discontinuations due to TEAEs, incidence % (All JZP-110): (5.1) %
Discontinuations due to TEAEs, incidence n (All JZP-110): 9
Dizziness, incidence % (All JZP-110): (3.4) %
Dizziness, incidence n (All JZP-110): 6
Dry mouth, incidence % (All JZP-110): (7.3) %
Dry mouth, incidence n (All JZP-110): 13
Dyspepsia, incidence % (All JZP-110): (3.4) %
Dyspepsia, incidence n (All JZP-110): 6
Fatigue, incidence % (All JZP-110): (2.8) %
Fatigue, incidence n (All JZP-110): 5
Headache, incidence % (All JZP-110): (21.5) %
Headache, incidence n (All JZP-110): 38
Heart rate increased, incidence % (All JZP-110): (2.3) %
Heart rate increased, incidence n (All JZP-110): 4
Influenza, incidence % (All JZP-110): (2.3) %
Influenza, incidence n (All JZP-110): 4
Insomnia, incidence % (All JZP-110): (2.8) %
Insomnia, incidence n (All JZP-110): 5
Nasopharyngitis, incidence % (All JZP-110): (9.0) %
Nasopharyngitis, incidence n (All JZP-110): 16
Nausea, incidence % (All JZP-110): (10.7) %
Nausea, incidence n (All JZP-110): 19
Serious TEAEs, incidence % (All JZP-110): (0.6) %
Serious TEAEs, incidence n (All JZP-110): 1
Upper respiratory tract infection, incidence % (All JZP-110): (2.8) %
Upper respiratory tract infection, incidence n (All JZP-110): 5
Weight Increased, incidence % (All JZP-110): (1.7) %
Weight Increased, incidence n (All JZP-110): 3
Weight decreased, incidence % (All JZP-110): (2.8) %
Weight decreased, incidence n (All JZP-110): 5
